The target of one assay is DPP8 (Homo sapiens (Human), UniProt Q6V1X1). The assay can be described thus: DPP8 enzyme inhibition, IC50 measurement (Ala-Pro-pNA release). The class given is biochemical. The protocol: (§1) IC50 measurements. […] The Magellan software was used to process the data, which was then fitted using a non-linear fit model in GraFit 7. […] As a blank, the assay buffer was used instead of the enzyme. Screening measurements were carried out in duplo and IC50 values were determined in triplo with at least eight different inhibitor concentrations as described by Van Goethem et al.

A further assay has as its target DPP9 (Homo sapiens (Human), UniProt Q86TI2). The assay can be described thus: DPP9 enzyme inhibition, IC50 measurement (Ala-Pro-pNA release). The format is biochemical. To be noted: for SI DPP9/8 / SI DPP9/DPP8: selectivity index; for SI DPP9/8: DPP8 IC50 over DPP9 IC50. The protocol:
DPP4 was purified from human seminal plasma as described previously.^[3]
as §1

Where [1] appears, read: Table 3, mean ± SD (n = 3), read-out: DPP8 IC50 ± SD.
Setting [2] is: Table 3, mean ± SD (n = 3), read-out: DPP9 IC50 ± SD.
Setting [3] is: Table 4, standard method, read-out: IC50 DPP8.
Setting [4] is: Table 4, standard method, read-out: IC50 DPP9.

The values below come from patent US20250353833A1, “DPP9 BINDING COMPOUNDS” (UNIVERSITEIT ANTWERPEN, priority 2022, published 2025).

Molecules are shown by their SMILES. Read-outs that look alike come from different tables or passages of the source.

Chain of DPP8 (Q6V1X1 whole entry): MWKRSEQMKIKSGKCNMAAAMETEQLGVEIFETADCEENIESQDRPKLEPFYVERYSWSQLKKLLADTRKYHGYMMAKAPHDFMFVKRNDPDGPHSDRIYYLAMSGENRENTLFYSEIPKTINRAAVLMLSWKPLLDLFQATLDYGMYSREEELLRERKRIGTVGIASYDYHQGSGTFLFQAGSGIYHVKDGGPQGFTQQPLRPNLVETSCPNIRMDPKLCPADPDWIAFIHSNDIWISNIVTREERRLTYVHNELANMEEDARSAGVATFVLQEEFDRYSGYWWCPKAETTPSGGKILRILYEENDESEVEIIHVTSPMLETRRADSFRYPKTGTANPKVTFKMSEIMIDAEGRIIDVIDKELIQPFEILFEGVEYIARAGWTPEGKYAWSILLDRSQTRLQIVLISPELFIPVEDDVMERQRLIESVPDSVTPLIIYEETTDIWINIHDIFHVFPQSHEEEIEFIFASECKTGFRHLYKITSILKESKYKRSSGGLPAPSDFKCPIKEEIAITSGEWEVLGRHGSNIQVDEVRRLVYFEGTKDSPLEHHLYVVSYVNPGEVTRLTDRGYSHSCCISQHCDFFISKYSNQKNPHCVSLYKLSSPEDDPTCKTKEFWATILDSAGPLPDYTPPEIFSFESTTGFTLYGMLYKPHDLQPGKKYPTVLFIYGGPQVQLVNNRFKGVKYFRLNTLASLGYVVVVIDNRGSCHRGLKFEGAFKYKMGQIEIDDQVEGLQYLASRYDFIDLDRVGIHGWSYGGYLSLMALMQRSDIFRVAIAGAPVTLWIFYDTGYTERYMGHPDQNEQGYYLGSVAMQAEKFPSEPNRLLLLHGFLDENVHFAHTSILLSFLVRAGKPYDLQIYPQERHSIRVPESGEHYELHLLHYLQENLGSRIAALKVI
Chain of DPP9 (Q86TI2 whole entry): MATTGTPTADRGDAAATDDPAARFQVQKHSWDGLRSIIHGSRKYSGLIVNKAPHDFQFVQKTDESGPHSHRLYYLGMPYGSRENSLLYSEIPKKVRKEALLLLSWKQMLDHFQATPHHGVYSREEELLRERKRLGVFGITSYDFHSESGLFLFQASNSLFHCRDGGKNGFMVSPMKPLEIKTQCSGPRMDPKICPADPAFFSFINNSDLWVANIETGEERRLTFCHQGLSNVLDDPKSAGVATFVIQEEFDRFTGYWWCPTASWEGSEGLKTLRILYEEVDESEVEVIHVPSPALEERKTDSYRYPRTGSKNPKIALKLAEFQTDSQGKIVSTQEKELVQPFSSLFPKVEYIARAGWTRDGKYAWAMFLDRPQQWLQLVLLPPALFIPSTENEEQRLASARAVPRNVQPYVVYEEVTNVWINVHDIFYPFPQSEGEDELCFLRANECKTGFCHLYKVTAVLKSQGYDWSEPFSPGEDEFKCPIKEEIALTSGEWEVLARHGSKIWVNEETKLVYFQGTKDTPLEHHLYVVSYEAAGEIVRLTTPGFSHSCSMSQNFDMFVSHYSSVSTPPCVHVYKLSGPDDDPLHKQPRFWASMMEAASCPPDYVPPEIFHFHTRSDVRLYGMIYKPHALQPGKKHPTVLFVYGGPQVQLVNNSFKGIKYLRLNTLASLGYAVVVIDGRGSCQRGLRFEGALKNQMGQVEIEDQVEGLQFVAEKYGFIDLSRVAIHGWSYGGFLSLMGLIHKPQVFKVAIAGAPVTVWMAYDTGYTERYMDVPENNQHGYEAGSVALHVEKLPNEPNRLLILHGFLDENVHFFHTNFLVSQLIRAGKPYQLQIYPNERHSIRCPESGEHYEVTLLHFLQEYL

A word on the IC50: it is the concentration at which inhibition is half-maximal. As for `O=C(NC12CC3CC(CC(C3)C1)C2)NC12CC3CC(CC(NCC(=O)N4Cc5ccccc5C4)(C3)C1)C2` [Compound 41, 1-(adamantan-1-yl)-3-(3-((2-(isoindolin-2-yl)-2-oxoethyl)amino)adamantan-1-yl)urea], the IC50 stood at 592 ± 87.7 nM on DPP8 (setting [1]) and 32.8 nM at DPP9 (setting [2]). Besides, the “SI DPP9/8” value on DPP9 (Table 3) worked out at 18.0.
Turning to `Cl.O=C(NCc1ccccc1)NC12CC3CC(CC(NCC(=O)N4Cc5ccccc5C4)(C3)C1)C2` [Compound 42, 1-benzyl-3-(3-((2-(isoindolin-2-yl)-2-oxoethyl)amino)adamantan-1-yl)urea hydrochloride], the values for the IC50 on DPP8 (setting [1]) and at DPP9 (setting [2]) were 505 ± 25.7 nM and 37.8 ± 13.3 nM, respectively. Moreover, the “SI DPP9/8” value on DPP9 (Table 3) amounted to 13.4.
On to `N#Cc1ccc(CCC(=O)NC23CC4CC(CC(NCC(=O)N5Cc6ccccc6C5)(C4)C2)C3)cc1` [Compound 44, 3-(4-cyanophenyl)-N-(3-((2-(isoindolin-2-yl)-2-oxoethyl)amino)adamantan-1-yl)propanamide], for which the IC50 on DPP8 (setting [1]) stood at 638 ± 46.4 nM; on DPP9 (setting [2]) it was 32 nM. In addition, the “SI DPP9/8” value on DPP9 (Table 3) is reported as 19.9.
`CC(C)(C)OC(=O)NC12CC3CC(CC(NCC(=O)N4Cc5ccc(F)cc5C4)(C3)C1)C2` [Compound 46, tert-butyl (3-((2-(5-fluoroisoindolin-2-yl)-2-oxoethyl)amino)adamantan-1-yl)carbamate]: the IC50 turned out to be 824 ± 148 nM on DPP8 (setting [1]) and 14.3 nM on DPP9 (setting [2]). The “SI DPP9/8” value at DPP9 (Table 3) is on record as 57.6.
In the same order, the values of `NC12CC3CC(C1)CC(NCC(=O)N1Cc4ccc(F)cc4C1)(C3)C2` [Compound 47, 2-((3-aminoadamantan-1-yl)amino)-1-(5-fluoroisoindolin-2-yl)ethan-1-one bis(2,2,2-trifluoroacetate)] are 2620 ± 394 nM, 259 ± 35.8 nM and 10.1.
Take `CC(C)(C)NC(=O)NC12CC3CC(CC(NCC(=O)N4Cc5ccc(F)cc5C4)(C3)C1)C2` [Compound 48, 1-(tert-butyl)-3-(3-((2-(5-fluoroisoindolin-2-yl)-2-oxoethyl)amino)adamantan-1-yl)urea]: the IC50 worked out at 369 ± 30 nM at DPP8 (setting [1]) and 4 ± 1 nM at DPP9 (setting [2]). The “SI DPP9/8” value at DPP9 (Table 3) was 85.
For the compound `CC(C)(C)OC(=O)NC12CC3CC(CC(NCC(=O)N4Cc5cc(F)c(F)cc5C4)(C3)C1)C2` [Compound 49], the values for the IC50 at DPP8 (setting [1]) and at DPP9 (setting [2]) were 613 ± 154 nM and 3.4 nM, respectively. Moreover, the “SI DPP9/8” value on DPP9 (Table 3) is 180.3.
Consider `O=C(O)CNC(=O)OC12CC3CC(CC(NCC(=O)N4Cc5ccc(F)cc5C4)(C3)C1)C2` [Compound 53], for which the IC50 on DPP8 (setting [1]) came to 1740 ± 59.1 nM; at DPP9 (setting [2]) it was 39.6 nM. For the same compound, the “SI DPP9/8” value on DPP9 (Table 3) was determined as 43.9.
As to `COc1ccc2c(c1)CN(C(=O)CNC13CC4CC(C1)CC(NC(=O)OC(C)(C)C)(C4)C3)C2` [Compound 59, tert-butyl (3-((2-(5-methoxyisoindolin-2-yl)-2-oxoethyl)amino)adamantan-1-yl)carbamate], the IC50 on DPP8 (setting [1]) was found to be 5220 ± 321 nM; at DPP9 (setting [2]), 309 ± 60.4 nM. Moreover, the “SI DPP9/8” value at DPP9 (Table 3) was found to be 16.9.
For the compound `COC(=O)[C@H](Cc1c[nH]c2ccccc12)NC(=O)OC12CC3CC(CC(NCC(=O)N4Cc5ccc(F)cc5C4)(C3)C1)C2` [Compound 60, Methyl (((3-((2-(5-fluoroisoindolin-2-yl)-2-oxoethyl)amino)adamantan-1-yl)oxy)carbonyl)-L-tryptophanate], the half-inhibitory concentration (IC50) at DPP8 (setting [1]) worked out at 689 ± 32.3 nM; at DPP9 (setting [2]) it was 43.8 nM. The “SI DPP9/8” value at DPP9 (Table 3) is reported as 15.7.
Taken in the same sequence, the figures for `COC(=O)[C@H](CCSC)NC(=O)OC12CC3CC(CC(NCC(=O)N4Cc5ccc(F)cc5C4)(C3)C1)C2` [Compound 61, Methyl (((-3-((2-(5-fluoroisoindolin-2-yl)-2-oxoethyl)amino)adamantan-1-yl)oxy)carbonyl)-L-methioninate] were 705 ± 76 nM, 46.1 nM and 15.3.
In the same order, the values of `COC(=O)[C@H](C)NC(=O)OC12CC3CC(CC(NCC(=O)N4Cc5ccc(F)cc5C4)(C3)C1)C2` [Compound 62, Methyl (((3-((2-(5-fluoroisoindolin-2-yl)-2-oxoethyl)amino)adamantan-1-yl)oxy)carbonyl)-L-alaninate] are 1290 ± 186 nM, 93.8 ± 17.3 nM and 13.8.
Take `CC12CC3CC(C)(C1)CC(NCC(=O)N1Cc4ccc(F)cc4C1)(C3)C2` [Compound 63, 2-((3,5-Dimethyladamantan-1-yl)amino)-1-(5-fluoroisoindolin-2-yl)ethan-1-one]: the 50% inhibitory concentration (IC50) on DPP8 (setting [1]) turned out to be 4780 ± 670 nM; on DPP9 (setting [2]), 443 ± 168 nM. For the same compound, the “SI DPP9/8” value at DPP9 (Table 3) is on record as 10.8.
Consider `O=C(CCCCC1SCC2NC(=O)NC21)NCCOCCOCCOCCNC(=O)NC12CC3CC(CC(NCC(=O)N4Cc5ccc(F)cc5C4)(C3)C1)C2` (stereo not drawn) [Compound 75, N-(1-((3-((2-(5-fluoroisoindolin-2-yl)-2-oxoethyl)amino)adamantan-1-yl)amino)-1-oxo-5,8,11-trioxa-2-azatridecan-13-yl)-5-(2-oxohexahydro-1H-thieno[3,4-d]imidazol-4-yl)pentanamide], for which the IC50 at DPP8 (setting [1]) was 495 ± 72 nM; at DPP9 (setting [2]) it was 43 nM. The “SI DPP9/8” value on DPP9 (Table 3) is recorded as 12.
Taken in the same sequence, the figures for `O=C1CCC(N2C(=O)c3cccc(NCCOCCOC(=O)NC45CC6CC(CC(NCC(=O)N7Cc8ccc(F)cc8C7)(C6)C4)C5)c3C2=O)C(=O)N1` (stereo not drawn) [Compound 76, 2-(2-((2-(2,6-Dioxopiperidin-3-yl)-1,3-dioxoisoindolin-4-yl)amino)ethoxy)ethyl (3-((2-(5-fluoroisoindolin-2-yl)-2-oxoethyl)amino)adamantan-1-yl)carbamate] were 8 nM, 1.4 nM and 6.
Turning to `O=C1CCC(N2C(=O)c3cccc(NCCOCCNC(=O)NC45CC6CC(CC(NCC(=O)N7Cc8ccc(F)cc8C7)(C6)C4)C5)c3C2=O)C(=O)N1` (stereo not drawn) [Compound 77, 1-(2-(2-((2-(2,6-Dioxopiperidin-3-yl)-1,3-dioxoisoindolin-4-yl)amino)ethoxy)ethyl)-3-(3-((2-(5-fluoroisoindolin-2-yl)-2-oxoethyl)amino)adamantan-1-yl)urea], the IC50 on DPP8 (setting [1]) came to 21 nM; on DPP9 (setting [2]) it was 2.4 nM. Besides, on DPP9 (Table 3), the “SI DPP9/8” value turned out to be 9.
Regarding `O=C1CCC(N2C(=O)c3cccc(NCCOCCOCCOCCNC(=O)NC45CC6CC(CC(NCC(=O)N7Cc8ccc(F)cc8C7)(C6)C4)C5)c3C2=O)C(=O)N1` (stereo not drawn) [Compound 78, 1-(2-(2-(2-(2-((2-(2,6-Dioxopiperidin-3-yl)-1,3-dioxoisoindolin-4-yl)amino)ethoxy)ethoxy)ethoxy)ethyl)-3-(3-((2-(5-fluoroisoindolin-2-yl)-2-oxoethyl)amino)adamantan-1-yl)urea], the IC50 is 79 nM at DPP8 (setting [1]) and 12 nM on DPP9 (setting [2]). Besides, the “SI DPP9/8” value at DPP9 (Table 3) is recorded as 7.
Consider `Cc1ccc2c(c1)CN(C(=O)CNC13CC4CC(C1)CC(NC(=O)OC(C)(C)C)(C4)C3)C2` [Compound 84, tert-butyl ((1s,3r,5R,7S)-3-((2-(5-methylisoindolin-2-yl)-2-oxoethyl)amino)adamantan-1-yl)carbamate], for which the IC50 on DPP8 (setting [3]) was found to be 4710 ± 444 nM; on DPP9 (setting [4]), 208 ± 48 nM. Also, on DPP9 (Table 4), the “SI DPP9/DPP8” value is 23.
Taken in the same sequence, the figures for `CC(C)(C)NC(=O)NC12CC3CC(CC(NCC(=O)N4Cc5cc(F)c(F)cc5C4)(C3)C1)C2.Cl` [Compound 85, 1-(tert-butyl)-3-((1s,3r,5R,7S)-3-((2-(5,6-difluoroisoindolin-2-yl)-2-oxoethyl)amino)adamantan-1-yl)urea hydrochloride] were 1330 ± 97 nM, 32 nM and 41.
Taken in the same sequence, the figures for `CC(C)(C)CC(=O)NC12CC3CC(CC(NCC(=O)N4Cc5cc(F)c(F)cc5C4)(C3)C1)C2` [Compound 86, N-((1s,3r,5R,7S)-3-((2-(5,6-difluoroisoindolin-2-yl)-2-oxoethyl)amino)adamantan-1-yl)-3,3-dimethylbutanamide] were 1300 ± 127 nM, 58 nM and 22.
Turning to `Cl.O=C(NC12CC3CC(CC(NCC(=O)N4Cc5ccc(F)cc5C4)(C3)C1)C2)c1ccc(-c2cccnc2)cc1` [Compound 88, N-((1s,3r,5R,7S)-3-((2-(5-fluoroisoindolin-2-yl)-2-oxoethyl)amino)adamantan-1-yl)-4-(pyridin-3-yl)benzamide hydrochloride], the IC50 on DPP8 (setting [3]) worked out at 51 ± 25 nM; on DPP9 (setting [4]), 2 nM. Besides, the “SI DPP9/DPP8” value at DPP9 (Table 4) is 24.
In the same order, the values of `Cl.O=C(NC12CC3CC(CC(NCC(=O)N4Cc5ccc(F)cc5C4)(C3)C1)C2)c1ccc(-c2ccccn2)cc1` [Compound 90, N-((1s,3r,5R,7S)-3-((2-(5-fluoroisoindolin-2-yl)-2-oxoethyl)amino)adamantan-1-yl)-4-(pyridin-2-yl)benzamide hydrochloride] are 127 ± 23 nM, 3 nM and 37.
On to `Cl.O=C(NC12CC3CC(CC(NCC(=O)N4Cc5ccc(F)cc5C4)(C3)C1)C2)c1ccc(-c2ccncc2)cc1` [Compound 91, N-((1s,3r,5R,7S)-3-((2-(5-fluoroisoindolin-2-yl)-2-oxoethyl)amino)adamantan-1-yl)-4-(pyridin-4-yl)benzamide hydrochloride], for which the IC50 was determined as 102 ± 28 nM on DPP8 (setting [3]) and 8 nM at DPP9 (setting [4]). Besides, on DPP9 (Table 4), the “SI DPP9/DPP8” value was 12.
With `Cl.O=C(NC12CC3CC(CC(NCC(=O)N4Cc5ccc(F)cc5C4)(C3)C1)C2)c1ccc(F)cc1` [Compound 95, 4-fluoro-N-((1s,3r,5R,7S)-3-((2-(5-fluoroisoindolin-2-yl)-2-oxoethyl)amino)adamantan-1-yl)benzamide hydrochloride], the IC50 at DPP8 (setting [3]) was determined as 295 ± 15 nM; on DPP9 (setting [4]), 42 nM. Moreover, the “SI DPP9/DPP8” value on DPP9 (Table 4) turned out to be 7.
